Laboratory results from the SangsterLogP compilation.

Assay: not given

Question: Which logP does the source give for `Cc1oc2ccc3c(C)cc(=O)[nH]c3c2c1C` here?
Answer: The logP was 3.18.

Question: With `Cc1oc2cc3oc(=O)ncc3cc2c1C` as the compound, how does the logP read?
Answer: The logP was 1.97.

Question: For `Cc1cc2c(cc(C)c3ccc(=O)oc32)o1`, which logP is on record?
Answer: The logP was 2.92.

Question: For `Cc1cc2c(ccc3ccc(=O)oc32)o1`, which logP is on record?
Answer: The logP was 2.49.

Question: With `O=c1ccc2cc3ccsc3cc2o1` as the compound, how does the logP read?
Answer: The logP was 2.27.

Question: Which logP does the source give for `Cc1c(C)c2occc2c2oc(=O)ccc12` here?
Answer: The logP was 2.84.

Question: Which logP does the source give for `Cc1cc2occ(C)c2c2oc(=O)ccc12` here?
Answer: The logP was 2.92.

Question: For `Cc1cc(=O)oc2c1ccc1occ(C)c12`, which logP is on record?
Answer: The logP was 2.81.

Question: For `Cc1cc(=O)[nH]c2c1cc(C)c1occ(C)c12`, which logP is on record?
Answer: The logP was 3.13.

Question: With `O=c1ccc2cc3ccsc3cc2s1` as the compound, how does the logP read?
Answer: Its logP is 2.96.

Question: With `Cc1c2ccoc2cc2oc(=O)ccc12` as the compound, how does the logP read?
Answer: Its logP is 2.33.

Question: Which logP does the source give for `Cc1oc2cc3oc(=O)ccc3c(C)c2c1C` here?
Answer: The logP was 3.27.

Question: Which logP does the source give for `Cc1coc2cc3oc(=O)cc(C)c3cc12` here?
Answer: The logP was 2.76.

Question: Which logP does the source give for `Cc1cc2c(ccc3cc(C)c(=O)oc32)o1` here?
Answer: Its logP is 2.97.

Question: With `Cc1cc2ccc3occc3c2oc1=O` as the compound, how does the logP read?
Answer: Its logP is 2.49.

Question: Which logP does the source give for `Cc1c(C)c2cc3ccoc3cc2oc1=O` here?
Answer: Its logP is 2.77.

Question: With `Cc1c(C)c2cc3c(C)coc3nc2oc1=O` as the compound, how does the logP read?
Answer: Its logP is 2.25.

Question: With `O=c1ccc2cc3ccoc3cc2s1` as the compound, how does the logP read?
Answer: The logP was 2.61.

Question: For `Cc1cc2cc3ccc(=O)oc3c(C)c2o1`, which logP is on record?
Answer: The logP was 2.93.

Question: For `Cc1cc(=O)n(C)c2c1cc(C)c1occ(C)c12`, which logP is on record?
Answer: Its logP is 3.3.

Question: For `Cc1sc2c(C)cc3c(C)cc(=O)oc3c2c1C`, which logP is on record?
Answer: Its logP is 4.09.

Question: With `O=c1ccc2ccc3occc3c2[nH]1` as the compound, how does the logP read?
Answer: Its logP is 1.82.

Question: Which logP does the source give for `Cc1cc2c(ccc3c(C)cc(=O)n(C)c32)o1` here?
Answer: The logP was 3.08.

Question: With `Cc1cc2c(cc(C)c3c(C)cc(=O)oc32)o1` as the compound, how does the logP read?
Answer: Its logP is 3.36.

Question: With `Cc1cc2ccc(=O)oc2c2ccoc12` as the compound, how does the logP read?
Answer: Its logP is 2.43.

Question: Which logP does the source give for `Cc1sc2cc3oc(=O)cc(C)c3cc2c1C` here?
Answer: The logP was 3.48.

Question: For `Cc1coc2c(C)c3oc(=O)cc(C)c3cc12`, which logP is on record?
Answer: The logP was 3.25.

Question: Which logP does the source give for `O=c1ccc2ccc3occc3c2s1` here?
Answer: The logP was 2.58.

Question: With `Cc1cc2c(ccc3c(C)c(C)c(=O)oc32)o1` as the compound, how does the logP read?
Answer: The logP was 3.27.

Question: With `Cc1cc(=O)oc2c1cc(C)c1occc12` as the compound, how does the logP read?
Answer: The logP was 2.79.

Question: For `Cc1cc2c(C)c3ccc(=O)oc3cc2o1`, which logP is on record?
Answer: The logP was 2.84.

Question: With `Cc1cc2c(ccc3c(C)cc(=O)oc32)o1` as the compound, how does the logP read?
Answer: Its logP is 2.79.

Question: For `Cc1cc2c(o1)c(C)cc1ccc(=O)oc12`, which logP is on record?
Answer: Its logP is 2.85.

Question: Which logP does the source give for `COc1c2oc(=O)c(C)cc2cc2c(C)c(C)oc12` here?
Answer: The logP was 3.28.

Question: Which logP does the source give for `Cc1oc2ccc3ccc(=O)oc3c2c1C` here?
Answer: The logP was 2.94.

Question: With `Cc1oc2cc3oc(=O)cc(C)c3cc2c1C` as the compound, how does the logP read?
Answer: Its logP is 3.22.

Question: With `Cc1oc2nc3oc(=O)c(C)c(C)c3cc2c1C` as the compound, how does the logP read?
Answer: Its logP is 2.71.

Question: Which logP does the source give for `Cc1c(C)c2ccc3occ(C)c3c2oc1=O` here?
Answer: The logP was 3.25.

Question: Which logP does the source give for `COc1c2occc2cc2ccc(=O)sc12` here?
Answer: The logP was 2.66.

Question: With `Cc1cc2cc3c(C)cc(=O)oc3c(C)c2o1` as the compound, how does the logP read?
Answer: Its logP is 3.25.

Question: Which logP does the source give for `Cc1cc2c(o1)c(C)cc1c(C)cc(=O)n(C)c12` here?
Answer: Its logP is 3.43.

Question: For `Cc1coc2c(C)c3oc(=O)ccc3cc12`, which logP is on record?
Answer: The logP was 2.81.

Question: For `Cc1coc2c1c(C)cc1oc(=O)cc(C)c12`, which logP is on record?
Answer: The logP was 3.28.

Question: Which logP does the source give for `Cc1oc2c(C)cc3c(C)cc(O)nc3c2c1C` here?
Answer: Its logP is 3.5.

Question: Which logP does the source give for `Cc1cc2c(ccc3c(C)c(C)c(=O)n(C)c32)o1` here?
Answer: Its logP is 3.54.

Question: With `Cc1cc2ccc(=O)oc2c2c(C)coc12` as the compound, how does the logP read?
Answer: The logP was 2.88.

Question: Which logP does the source give for `Cc1cc2c(o1)c(C)c(C)c1ccc(=O)oc12` here?
Answer: The logP was 3.26.

Question: With `Cc1coc2nc3oc(=O)ccc3c(C)c12` as the compound, how does the logP read?
Answer: The logP was 1.73.

Question: Which logP does the source give for `Cc1oc2nc3oc(=O)ccc3c(C)c2c1C` here?
Answer: The logP was 2.19.

Question: Which logP does the source give for `Cc1cc2c(C)cc3oc(=O)cc(C)c3c2o1` here?
Answer: Its logP is 3.25.

Question: Which logP does the source give for `Cc1sc2ccc3c(C)cc(=O)oc3c2c1C` here?
Answer: Its logP is 3.65.

Question: Which logP does the source give for `Cc1cc(=O)oc2c1ccc1occc12` here?
Answer: Its logP is 2.34.

Question: With `Cc1coc2cc3oc(=O)ccc3c(C)c12` as the compound, how does the logP read?
Answer: The logP was 2.79.

Question: For `Cc1oc2ccc3c(C)cc(=O)oc3c2c1C`, which logP is on record?
Answer: The logP was 3.28.

Question: For `Cc1c(C)c2cc3c(C)coc3c(C)c2oc1=O`, which logP is on record?
Answer: The logP was 3.62.

Question: For `Cc1c(C)c2cc(C)c3occc3c2oc1=O`, which logP is on record?
Answer: The logP was 3.23.

Question: Which logP does the source give for `Cc1coc2cc3oc(=O)ccc3cc12` here?
Answer: The logP was 2.47.

Question: With `Cc1cc2c(o1)c(C)cc1c(C)cc(=O)oc12` as the compound, how does the logP read?
Answer: The logP was 3.15.

Question: For `Cc1cc2occc2c2oc(=O)ccc12`, which logP is on record?
Answer: Its logP is 2.5.

Question: Which logP does the source give for `Cc1oc2cc3oc(=O)ccc3cc2c1C` here?
Answer: Its logP is 2.93.

Question: Which logP does the source give for `Cc1oc2c(C)cc3ccc(=O)oc3c2c1C` here?
Answer: The logP was 3.34.

Question: With `Cc1coc2nc3oc(=O)cc(C)c3cc12` as the compound, how does the logP read?
Answer: The logP was 1.82.

Question: For `Cc1c(C)c2cc3ccoc3c(C)c2oc1=O`, which logP is on record?
Answer: Its logP is 3.25.

Question: For `Cc1cc2ccc3occ(C)c3c2oc1=O`, which logP is on record?
Answer: Its logP is 2.97.

Question: For `Cc1coc2nc3oc(=O)cc(C)c3c(C)c12`, which logP is on record?
Answer: The logP was 2.25.

Question: Which logP does the source give for `Cc1cc(=O)oc2c(C)c3occc3cc12` here?
Answer: Its logP is 2.82.

Question: Which logP does the source give for `Cc1c2occc2cc2ccc(=O)oc12` here?
Answer: The logP was 2.48.

Question: With `Cc1cc(=O)oc2c1cc(C)c1occ(C)c12` as the compound, how does the logP read?
Answer: The logP was 3.23.

Question: For `Cc1cc2cc3c(C)cc(=O)oc3cc2o1`, which logP is on record?
Answer: The logP was 2.82.

Question: With `Cc1c2oc(=O)ccc2c(C)c2c(C)coc12` as the compound, how does the logP read?
Answer: The logP was 3.35.

Question: Which logP does the source give for `Cc1coc2ccc3ccc(=O)oc3c12` here?
Answer: Its logP is 2.51.

Assay: method code SF-HPLC, from DOI: 10.1002/jps.1029, PMID: 11357176

Question: With `COc1c2occc2cc2ccc(=O)oc12` as the compound, how does the logP read?
Answer: Its logP is 2.07.

Question: Which logP does the source give for `O=c1ccc2cc3ccoc3cc2o1` here?
Answer: Its logP is 2.08.
